Measured values taken from ChEMBL document CHEMBL3988442, “University of Dundee, Small-Polar-MMV Screening Library” (2021).

target: ClpP1P2 (Mycobacterium tuberculosis (strain ATCC 25618 / H37Rv), UniProt P9WPC3+P9WPC5); experiment: in vitro assay to detect presence of AMC directly proportional to the activity of ClpP1P2. GHDDI collaboration.; format: functional
Sequence (P9WPC5 whole entry): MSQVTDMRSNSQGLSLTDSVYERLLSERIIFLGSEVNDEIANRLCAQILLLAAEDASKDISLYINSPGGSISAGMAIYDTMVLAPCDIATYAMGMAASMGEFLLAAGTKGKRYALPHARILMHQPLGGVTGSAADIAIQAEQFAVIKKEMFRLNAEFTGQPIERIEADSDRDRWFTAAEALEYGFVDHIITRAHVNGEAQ
Sequence (P9WPC3 whole entry): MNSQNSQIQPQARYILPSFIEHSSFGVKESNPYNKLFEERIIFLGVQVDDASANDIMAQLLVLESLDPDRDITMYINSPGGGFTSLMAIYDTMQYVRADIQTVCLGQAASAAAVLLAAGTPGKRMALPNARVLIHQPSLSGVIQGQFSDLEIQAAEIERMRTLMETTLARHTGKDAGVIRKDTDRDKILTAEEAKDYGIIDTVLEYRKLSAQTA

Row | Structure (SMILES) | IC50 [µM]
1 | CCN(Cc1nc2c(cnn2C)c(=O)[nH]1)Cc1cccs1 | > 100
2 | Cc1ccc(-c2nc(C3CCN(C(=O)c4cnn(C)c4)CC3)no2)cn1 | > 100
3 | Cc1nc(N2CCCC2C(=O)NCc2ccsc2)nc2ccccc12 (stereo not drawn) | > 100
4 | N#Cc1ccc(OC[C@]23COC[C@H]2CN(Cc2ccoc2)C3)nc1 | > 100
5 | COCC(=O)N1CCC(c2cc3nc(C)cc(C(F)(F)F)n3n2)CC1 | > 100
6 | Cc1ccc2[nH]c(=O)cc(C(=O)N[C@@H]3C[C@@H](CO)N(C)C3)c2c1 | > 100
7 | CCc1nccn1CCC(=O)N1CCCC1c1cncc(NC)n1 (stereo not drawn) | > 100
8 | COc1cc2ccccc2cc1C(=O)N1CCCC(c2nncn2C)C1 (stereo not drawn) | > 100
9 | CCOCC1CN(c2ccncn2)Cc2cnn(CC)c21 (stereo not drawn) | > 100
10 | CCOCc1ccc(CNc2cncc(-n3cccn3)n2)cc1 | > 100
11 | Cc1cccc(CN(C(=O)NCc2ccccn2)C2CC2)c1 | > 100
12 | COc1cc(OC)c2nc(NCCN3CCNC3=O)cc(C)c2c1 | > 100
13 | CCOc1ccc(Cl)c(C(=O)N(C)C)n1 | > 100
14 | O=C(O)C1CN(c2cncc(Cc3ccccc3F)n2)C1 | > 100
15 | Cc1ccc2nc(CNc3ccccc3C(=O)NC3CC3)cn2c1 | > 100
16 | O=C(c1c2c(NCC3CC3)ncnc2n2ccccc12)N1CCOCC1 | > 100
17 | CN(Cc1ccsc1)C(=O)Nc1ccc(N2CCCC2)nc1 | > 100
18 | O=C(NCc1cccnc1)c1ccc2nccn2c1 | > 100
19 | CNc1cncc(C2CCN(C(=O)c3coc(C)n3)CC2)n1 | > 100
20 | CCN(C(=O)CNc1cc(C)c(F)cc1C(N)=O)C1CC1 | > 100
21 | CC(C)c1nnc(CNC2CCCN(Cc3noc(C4CC4)n3)C2)o1 (stereo not drawn) | > 100
22 | CN1CCN(c2ncnc3c2c(C(=O)NC2CC2)c2ccccn23)CC1 | > 100
23 | Cn1ccc2c(cnc3nc(-c4ccncc4)nn32)c1=O | > 100
24 | Cc1ccc(CNC(=O)NC(C)Cn2cccn2)cn1 (stereo not drawn) | > 100
25 | Cc1csc2ncc(-c3ccnc(N4CCCN(C)CC4)n3)c(=O)n12 | > 100

Row | Structure (SMILES) | IC50 [µM]
26 | c1ccc(CN2CCc3ncnc(-c4ccoc4)c3CC2)nc1 | > 100
27 | O=C1NC2(CCN(C(=O)CN3CCOCC3)CC2)Nc2ccc(Cl)cc21 | > 100
28 | COc1ccccc1-c1nc(C(=O)N2CCOCC2)n2ccncc12 | > 100
29 | Cn1ccc2c(-c3cc(N)nc(N4CCOCC4)n3)ccnc21 | > 100
30 | CC(C(=O)N1CCCN(c2ccccc2C#N)CC1)n1cccn1 (stereo not drawn) | > 100
31 | CCNc1cc2c(nn1)CCN(C(=O)c1nccnc1N)C2 | > 100
32 | Cc1nc(CN2CCC(O)(c3ccccc3F)CC2)c2ccccn12 | > 100
33 | Cc1ccc2nccc(C(=O)N3CCOC(CCN(C)C)C3)c2c1 (stereo not drawn) | > 100
34 | Cc1nc(C)n(CC2CN(Cc3cccc4ccccc34)CCO2)n1 (stereo not drawn) | > 100
35 | CN(C)c1ncc(-c2cc(C(=O)N3CCCC3)n(CC3CC3)c2)cn1 | > 100
36 | O=C1C(Nc2ccc3nccnc3n2)CCN1c1ccccc1F (stereo not drawn) | > 100
37 | CC(C)n1cnc(-c2nc(C(=O)N3CCN(C)CC3)c3ccccn23)c1 | > 100
38 | Cc1ncc2c(n1)CN(Cc1nc(Cc3ccccc3)no1)CC2 | > 100
39 | CCn1ccnc1CN1CCN(CC(O)c2cccc(F)c2)CC1 (stereo not drawn) | > 100
40 | CC(C)n1cnc(-c2nc(C(=O)NC3CC3)c3ccccn23)c1 | > 100
41 | Cc1cccc(-c2cc(-c3c(C)nn(CCO)c3C)c(C#N)c(N)n2)c1 | > 100
42 | Cc1cc(C)n(-c2cncc(NCCNC(=O)C3CCCC3)n2)n1 | > 100
43 | CC(C)N(CCC#N)C(=O)c1cnc(-c2ccc3c(c2)OCO3)s1 | > 100
44 | Cc1nn(C)c(C)c1-c1cc(-c2cc(CC(=O)O)cs2)nc(N)c1C#N | > 100
45 | O=C(NCC1CC1)c1c2c(N3CCCC3)ncnc2n2ccccc12 | > 100
46 | CC(C)c1nc2c(n1C)CCN(CC(=O)Nc1cccnc1)C2 | > 100
47 | O=C(NCc1nn(-c2ccccc2)c2c1CCC2)NCC1COCCO1 (stereo not drawn) | > 100
48 | CCNC(=O)C1CCCN(c2ccc3ccc(F)cc3n2)C1 (stereo not drawn) | > 100
49 | CCC(C)NC(=O)c1ccc(-c2ccco2)[nH]c1=O (stereo not drawn) | > 100
50 | Cc1nc(-c2cc(C(=O)N3CCCN(C)CC3)c3ccccn23)cn1C | > 100

Row | Structure (SMILES) | IC50 [µM]
51 | CCSCCN1CCCN(S(C)(=O)=O)CC1 | > 100
52 | c1ccc(CCCN2CCCC(Nc3cnc4ccccc4n3)C2)cc1 (stereo not drawn) | > 100
53 | CN(C)c1nc2sc(C(=O)N3CCNC(=O)CC3)cc2s1 | > 100
54 | Cc1cnn(CC2CN(Cc3nc4ccccc4o3)CCO2)c1 (stereo not drawn) | > 100
55 | CC(C)c1ncc2c(n1)CN(Cc1nnc(Cc3ccccc3)o1)CC2 | > 100
56 | CNC(=O)c1cc2c(nc1NCC1CC1)CCN(S(=O)(=O)C1CC1)CC2 | > 100
57 | CCNCCOc1ccc(-c2cc(N)nc3[nH]ccc23)cc1 | > 100
58 | CC(C)=CCCC1(C)C=Cc2c(cc(C)n(CCC(=O)O)c2=O)O1 (stereo not drawn) | > 100
59 | CCN(CC)c1nc2sc(C(=O)N3CCNC(=O)C3)cc2s1 | > 100
60 | COCCN1CCc2cc(C(=O)NC(C)C)c(NCC3CC3)nc2CC1 | > 100
61 | O=C(c1c2c(N3CCCC3)ncnc2n2ccccc12)N1CCCC1 | > 100
62 | CN(C)C(=O)CN1CCC2(CC1)CC(=O)c1ccc3ccccc3c1O2 | > 100
63 | Cc1ccc(CN2C[C@@H]3[C@@H](C(=O)N4CCCC4)CCS(=O)(=O)[C@@H]3C2)cc1 | > 100
64 | OCCNc1nc(NCc2cccnc2)nc2nccnc12 | > 100
65 | O=S(=O)(c1ccccc1)N1CCOCC(Cc2cccnc2)C1 (stereo not drawn) | > 100
66 | CN(C)CC1CN(c2cnc3ccccc3n2)CCO1 (stereo not drawn) | > 100
67 | Cc1cc(NC(=O)CN2CCn3c(nnc3C(C)C)C2)no1 | > 100
68 | N#Cc1cc2cc(Cl)cnc2nc1O | > 100
69 | COc1ccc(-c2nnc(CNCCn3cc(C)cn3)o2)cc1 | > 100
70 | CC(C)=CCN1CCc2onc(-c3ccc(F)c(F)c3)c2C1 | > 100
71 | NC(=O)CC1CCCN(c2cncc(OCc3ccccc3)n2)C1 (stereo not drawn) | > 100
72 | COc1ccccc1-c1nc(C(=O)N(C)C)n2ccncc12 | > 100
73 | O=C(c1cncc(NCC2COc3ccccc3C2)n1)N1CCOCC1 (stereo not drawn) | > 100
74 | c1ccc2nc(N3CCOC(Cn4cncn4)C3)cnc2c1 (stereo not drawn) | > 100
75 | CCOC(=O)CN1CCC2(CC1)CC(=O)c1ccc3ccccc3c1O2 | > 100

Row | Structure (SMILES) | IC50 [µM]
76 | N#Cc1cccnc1N1CCC(C2CCCCCN2C(=O)C2CC2)CC1 (stereo not drawn) | > 100
77 | CC(Cc1ccco1)NC(=O)Nc1ccc(N(C)C)nc1 (stereo not drawn) | > 100
78 | Cc1nc(N2CCCC2C(=O)NC(C)(C)CO)nc2ccccc12 (stereo not drawn) | > 100
79 | O=C(c1ccc2ccccc2n1)N1CCC2(CCN2c2ncccn2)C1 (stereo not drawn) | > 100
80 | CC(C)Nc1ccnc(-c2ccnc3c2ccn3C)n1 | > 100
81 | CNC(=O)c1cc2c(nc1NC(C)C)CCN(C(=O)NC(C)C)CC2 | > 100
82 | Cc1cnn(CCNc2cnc3ccccc3n2)c1 | > 100
83 | CC1CCC(NC(=O)CNC2(c3ccc(Br)cc3)CCOCC2)CC1 (stereo not drawn) | > 100
84 | Cn1c(CS(=O)(=O)c2ccc(Cl)cc2)cc(=O)n(C)c1=O | > 100
85 | CSc1nccn1-c1ccc(C(=O)NCC2CC2)cc1 | > 100
86 | COc1cccc(OCCNS(=O)(=O)Cc2ccccc2)c1 | > 100
87 | O=C(c1nc(=O)[nH]c2ccccc12)N1CCCC(CC2CC2)(C(=O)O)C1 (stereo not drawn) | > 100
88 | CCC(=O)NC1CCCN(c2cncc(OCc3ccccc3)n2)C1 (stereo not drawn) | > 100
89 | COc1ccc(CNC(=O)Nc2cccnc2N2CCCC2)cc1OC | > 100
90 | CCCNCc1ccc(-c2cc(N)nc3[nH]ccc23)cc1 | > 100
91 | CC(Cn1ccnc1)NC(=O)NCCc1cccs1 (stereo not drawn) | > 100
92 | CCOC(=O)C1(Cc2ccc(Cl)cc2)CCN(Cc2ncc[nH]2)CC1 | > 100
93 | CCN1CCCC1CNCc1cc2cc3c(cc2[nH]c1=O)OCCO3 (stereo not drawn) | > 100
94 | CS(=O)(=O)CC1(CNc2cc(C#N)c3cc(Cl)ccc3n2)CC1 | > 100
95 | CC(C)N1CC[C@@](C)(O)[C@H](n2ccc(=O)[nH]c2=O)C1 | > 100
96 | Cc1sc2c(C3CCCNC3)nc(Nc3cccc(F)c3)n2c1C (stereo not drawn) | > 100
97 | Cc1nc(C)n(CC2CCCN(CCC(=O)NC3CCCCC3)C2)n1 (stereo not drawn) | > 100
98 | Cc1ccc(C2(O)CCN(C(=O)CCn3ccc(=O)[nH]c3=O)CC2)nc1 | > 100
99 | COc1ccc2c(c1OC)Cc1c-2nc(N)c(C#N)c1C1CCOC1 (stereo not drawn) | > 100
100 | COCCNCc1cc2c(C)cc(C)cc2n2c(=O)n(C)nc12 | > 100

Row | Structure (SMILES) | IC50 [µM]
101 | COCCN1CC(C(=O)NCc2cccnc2-n2cccn2)CC1=O (stereo not drawn) | > 100
102 | O=C1CN(c2cc(-c3ccccc3F)nc3ccnn23)CCCN1 | > 100
103 | O=C(c1c2c(NCC3CC3)ncnc2n2ccccc12)N1CCCC1 | > 100
104 | Cn1cc(CN2CCCN(C(=O)c3cn4ccccc4n3)CC2)cn1 | > 100
105 | Nc1ncc(-c2ccc(Cl)cc2)c(C2CCCNC2)n1 (stereo not drawn) | > 100
106 | CC(COCC(F)(F)F)NC(=O)c1ccc(-c2ccco2)[nH]c1=O (stereo not drawn) | > 100
107 | Cc1cc(C)n(CCNc2ncnc3c2NC(=O)CN3)n1 | > 100
108 | O=C1C(Nc2ccc3nccnc3n2)CCN1c1ccccc1 (stereo not drawn) | > 100
109 | COc1ccc2c(c1)C(=O)N(C)C1(CCN(C(=O)OC(C)(C)C)CC1)N2 | > 100
110 | Cc1nc(C)n(CC2CCCN(CC(=O)N3CCCC3)C2)n1 (stereo not drawn) | > 100
111 | Cn1cc(-c2nc(CNCCn3cccn3)cs2)cn1 | > 100
112 | O=C1CCCN1Cc1nnc2n1CCCN(C(=O)c1ccco1)C2 | > 100
113 | Cc1nc2ccccc2nc1NCc1cccc(OCC2CCCO2)c1 (stereo not drawn) | > 100
114 | Cc1sc2ncc(-c3ccnc(NC4CCN(C)CC4)n3)c(=O)n2c1C | > 100
115 | Cn1ccc(-c2cc(C(=O)N3CCCCC3)c3ccccn23)n1 | > 100
116 | O=C(NCC(F)(F)F)c1ccc(-c2ccco2)[nH]c1=O | > 100
117 | CCN1CCCC1CNCc1cc2cc(OC)c(OC)cc2[nH]c1=O (stereo not drawn) | > 100
118 | Cc1ccoc1C(=O)NC1CCN(C(=O)Nc2ccccn2)CC1 | > 100
119 | Cc1csc2ncc(-c3ccnc(N4CCCC[C@@H]4CO)n3)c(=O)n12 | > 100
120 | CN(Cc1noc(C2CC2)n1)C1CCN(Cc2ccccc2C#N)C1 (stereo not drawn) | > 100
121 | CC(C)n1c2ccccc2c2c1cc(C(=O)NCCO)n2C(=O)N(C)C | > 100
122 | COc1cccc(-c2cc(NCCN(C)C)nc3[nH]ccc23)n1 | > 100
123 | COC(=O)COc1cccc(NS(=O)(=O)c2cc(C(=O)O)cs2)c1 | > 100
